Patent publication US20240335442A1 (Eurofarma Laboratórios S.A., priority 2021, published 2024)

Experiments:
[1] = biological target: human sodium channel Nav 1.7 (Homo sapiens (Human), UniProt Q15858); test: Automated whole-cell voltage-clamp (ScreenPatch 384P), Nav 1.7 sodium current, Protocol 1; assay type: cell-based; conditions: Protocol 1 (holding voltage -90 mV, 0.1 Hz); CHO cells expressing human Nav 1.7; room temperature; read-out: Nav1.7 IC50
Experimental: (§1) Biological assays were performed on Chinese hamster ovary (CHO) cells expressing the human sodium channels Nav 1.8 and Nav 1.7 stably.
(§2) The experimental voltage-clamp protocol using the whole cell configuration was established on the automated ScreenPatch® 384P platform (SP384PE, Nanion Technologies, Livingston, NJ) and recording of the results was performed with a Nanion 384-well Patch Clamp chip (NPC) (Nanion Technologies, Livingston, NJ).
(§3) Compounds of Formula (I), were diluted in eight concentrations in the extracellular solution composed of physiological saline, buffered with HEPES (mM): NaCl, 137; KCl, 4; CaCl2, 3.8; MgCl2, 1; HEPES, 10; Glucose, 10; pH 7.4. The […], 50; CsF, 90; MgCl2, 5; EGTA, 5; HEPES, 10; pH 7.2. The duration of exposure of each compound with the cells expressing Nav 1.7 or Nav 1.8 was at least five minutes and the assays were performed at room temperature.
(§4) The measurements of the sodium currents of Nav 1.8 and Nav 1.7 were obtained using the voltage protocols described below: • Protocol 1: A holding voltage of-90 mV was established followed by a voltage phase of 200 ms to-120 mV, followed by a voltage step of 10 mV for 1 second for Nav 1.8 or 0 mV for Nav 1.7, followed by a step of-100 mV for 20 ms, followed by a step of 20 ms for 10 mV for Nav 1.8 or 0 mV for Nav 1.7 (TP1A) before returning to the holding voltage of-90 mV. • Protocol 2: A holding voltage of-100 mV was established followed by an inactivation voltage step at −40 mV for 8 seconds, followed by a −100 mV step for 20 ms, followed by a 20 ms step for 10 mV for Nav 1.8 or 0 mV for Nav 1.7 (TP1A) before returning to the holding voltage of-100 mV.
(§5) Protocols were repeated at a frequency of 0.1 Hz (Protocol 1) or 0.05 Hz (Protocol 2) and current amplitude was quantified over the TP1A phase log. The variation in the peak amplitude of the current was evaluated according to the Formula described below, after exposure of the cells expressing the channels, at each concentration of the different compounds:
(§6) where ITP1A,basal, and ITP1A,molecule represent the entry peaks of sodium currents into TP1A prior to exposure to the compound and in the presence of the compound, respectively.
(§7) The decrease in peak current amplitude, after exposure of the cells to the compounds, was used to calculate the percent relative blocking of the channels relative to the positive control according to the Formula below: […]
(§8) where % V and % CP represent the averages of the values of current inhibition with a vehicle (DMSO) and positive controls, respectively. The sodium currents of the positive control were considered as 100%.
(§9) where [Test] represents the concentration of the evaluated molecule, IC50 is the concentration of the compound that generates half of the maximum inhibition, N is the Hill's coefficient and % Block′ is the percentage of the sodium channel current (Nav 1.8 and Nav 1.7) inhibited at each concentration of the evaluated molecule. Data were obtained by non linear least squares regression with XL fit for Excel (Microsoft, Redmond, WA).
(§10) Compounds were tested in at least one assay to obtain the IC50 value.

[2] = biological target: human sodium channel Nav 1.8 (Homo sapiens (Human), UniProt Q9Y5Y9); test: Automated whole-cell voltage-clamp (ScreenPatch 384P), Nav 1.8 sodium current, Protocol 1; assay type: cell-based; conditions: Protocol 1 (holding voltage -90 mV, 0.1 Hz); CHO cells expressing human Nav 1.8; room temperature; read-out: Nav1.8 IC50
Chain of human sodium channel Nav 1.8 (Q9Y5Y9 whole entry): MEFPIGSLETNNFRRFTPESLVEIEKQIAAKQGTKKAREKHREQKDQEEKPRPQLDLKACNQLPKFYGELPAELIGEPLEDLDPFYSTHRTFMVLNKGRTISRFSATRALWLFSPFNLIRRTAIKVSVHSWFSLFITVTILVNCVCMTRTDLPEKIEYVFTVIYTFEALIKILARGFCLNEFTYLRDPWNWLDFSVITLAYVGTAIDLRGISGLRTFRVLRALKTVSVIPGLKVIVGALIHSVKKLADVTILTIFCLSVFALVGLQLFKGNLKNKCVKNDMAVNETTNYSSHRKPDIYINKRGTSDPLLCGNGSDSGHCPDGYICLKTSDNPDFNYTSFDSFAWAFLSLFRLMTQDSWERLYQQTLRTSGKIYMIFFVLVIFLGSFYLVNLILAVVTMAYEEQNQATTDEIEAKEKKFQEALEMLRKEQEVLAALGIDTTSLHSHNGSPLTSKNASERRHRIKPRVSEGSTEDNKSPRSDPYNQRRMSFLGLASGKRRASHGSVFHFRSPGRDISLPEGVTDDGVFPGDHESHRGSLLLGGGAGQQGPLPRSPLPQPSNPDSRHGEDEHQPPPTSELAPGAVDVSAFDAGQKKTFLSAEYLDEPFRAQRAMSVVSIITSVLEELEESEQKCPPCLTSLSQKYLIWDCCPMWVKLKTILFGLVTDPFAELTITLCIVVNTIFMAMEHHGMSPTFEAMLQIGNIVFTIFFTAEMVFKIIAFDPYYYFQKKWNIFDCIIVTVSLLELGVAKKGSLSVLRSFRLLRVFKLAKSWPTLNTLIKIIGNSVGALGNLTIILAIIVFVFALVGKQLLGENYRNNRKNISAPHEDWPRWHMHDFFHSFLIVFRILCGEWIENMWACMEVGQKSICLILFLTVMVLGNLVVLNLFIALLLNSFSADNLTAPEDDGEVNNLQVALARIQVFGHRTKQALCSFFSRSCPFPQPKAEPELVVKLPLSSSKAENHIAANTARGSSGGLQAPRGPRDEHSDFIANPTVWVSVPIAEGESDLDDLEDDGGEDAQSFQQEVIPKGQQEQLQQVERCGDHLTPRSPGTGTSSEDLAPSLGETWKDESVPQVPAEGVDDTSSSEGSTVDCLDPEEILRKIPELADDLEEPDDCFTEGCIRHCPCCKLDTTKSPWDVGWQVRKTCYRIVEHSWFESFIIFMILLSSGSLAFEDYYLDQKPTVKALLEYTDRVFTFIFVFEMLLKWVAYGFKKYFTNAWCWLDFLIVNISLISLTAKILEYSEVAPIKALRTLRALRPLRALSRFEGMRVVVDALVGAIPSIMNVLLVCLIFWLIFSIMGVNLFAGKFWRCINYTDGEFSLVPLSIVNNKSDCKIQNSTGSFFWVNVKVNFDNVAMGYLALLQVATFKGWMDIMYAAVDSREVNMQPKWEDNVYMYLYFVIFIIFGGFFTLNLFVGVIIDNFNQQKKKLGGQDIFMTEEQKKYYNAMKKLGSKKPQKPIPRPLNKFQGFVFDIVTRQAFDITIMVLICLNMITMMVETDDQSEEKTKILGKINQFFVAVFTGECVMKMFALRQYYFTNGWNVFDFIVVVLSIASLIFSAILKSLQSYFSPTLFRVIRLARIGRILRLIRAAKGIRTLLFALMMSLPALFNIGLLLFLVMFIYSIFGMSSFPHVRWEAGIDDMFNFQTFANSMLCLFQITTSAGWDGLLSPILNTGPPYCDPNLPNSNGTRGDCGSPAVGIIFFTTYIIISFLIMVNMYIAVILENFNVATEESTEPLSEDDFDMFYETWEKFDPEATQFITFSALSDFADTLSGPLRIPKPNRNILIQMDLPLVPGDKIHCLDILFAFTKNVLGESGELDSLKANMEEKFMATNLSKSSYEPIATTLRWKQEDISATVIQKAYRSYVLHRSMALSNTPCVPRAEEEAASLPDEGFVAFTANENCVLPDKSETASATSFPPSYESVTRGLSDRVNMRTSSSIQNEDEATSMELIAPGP
Experimental: as §1, §2, §3, §4, §5, §6, §7, §8, §9, §10

Chain of human sodium channel Nav 1.7 (Q15858 whole entry): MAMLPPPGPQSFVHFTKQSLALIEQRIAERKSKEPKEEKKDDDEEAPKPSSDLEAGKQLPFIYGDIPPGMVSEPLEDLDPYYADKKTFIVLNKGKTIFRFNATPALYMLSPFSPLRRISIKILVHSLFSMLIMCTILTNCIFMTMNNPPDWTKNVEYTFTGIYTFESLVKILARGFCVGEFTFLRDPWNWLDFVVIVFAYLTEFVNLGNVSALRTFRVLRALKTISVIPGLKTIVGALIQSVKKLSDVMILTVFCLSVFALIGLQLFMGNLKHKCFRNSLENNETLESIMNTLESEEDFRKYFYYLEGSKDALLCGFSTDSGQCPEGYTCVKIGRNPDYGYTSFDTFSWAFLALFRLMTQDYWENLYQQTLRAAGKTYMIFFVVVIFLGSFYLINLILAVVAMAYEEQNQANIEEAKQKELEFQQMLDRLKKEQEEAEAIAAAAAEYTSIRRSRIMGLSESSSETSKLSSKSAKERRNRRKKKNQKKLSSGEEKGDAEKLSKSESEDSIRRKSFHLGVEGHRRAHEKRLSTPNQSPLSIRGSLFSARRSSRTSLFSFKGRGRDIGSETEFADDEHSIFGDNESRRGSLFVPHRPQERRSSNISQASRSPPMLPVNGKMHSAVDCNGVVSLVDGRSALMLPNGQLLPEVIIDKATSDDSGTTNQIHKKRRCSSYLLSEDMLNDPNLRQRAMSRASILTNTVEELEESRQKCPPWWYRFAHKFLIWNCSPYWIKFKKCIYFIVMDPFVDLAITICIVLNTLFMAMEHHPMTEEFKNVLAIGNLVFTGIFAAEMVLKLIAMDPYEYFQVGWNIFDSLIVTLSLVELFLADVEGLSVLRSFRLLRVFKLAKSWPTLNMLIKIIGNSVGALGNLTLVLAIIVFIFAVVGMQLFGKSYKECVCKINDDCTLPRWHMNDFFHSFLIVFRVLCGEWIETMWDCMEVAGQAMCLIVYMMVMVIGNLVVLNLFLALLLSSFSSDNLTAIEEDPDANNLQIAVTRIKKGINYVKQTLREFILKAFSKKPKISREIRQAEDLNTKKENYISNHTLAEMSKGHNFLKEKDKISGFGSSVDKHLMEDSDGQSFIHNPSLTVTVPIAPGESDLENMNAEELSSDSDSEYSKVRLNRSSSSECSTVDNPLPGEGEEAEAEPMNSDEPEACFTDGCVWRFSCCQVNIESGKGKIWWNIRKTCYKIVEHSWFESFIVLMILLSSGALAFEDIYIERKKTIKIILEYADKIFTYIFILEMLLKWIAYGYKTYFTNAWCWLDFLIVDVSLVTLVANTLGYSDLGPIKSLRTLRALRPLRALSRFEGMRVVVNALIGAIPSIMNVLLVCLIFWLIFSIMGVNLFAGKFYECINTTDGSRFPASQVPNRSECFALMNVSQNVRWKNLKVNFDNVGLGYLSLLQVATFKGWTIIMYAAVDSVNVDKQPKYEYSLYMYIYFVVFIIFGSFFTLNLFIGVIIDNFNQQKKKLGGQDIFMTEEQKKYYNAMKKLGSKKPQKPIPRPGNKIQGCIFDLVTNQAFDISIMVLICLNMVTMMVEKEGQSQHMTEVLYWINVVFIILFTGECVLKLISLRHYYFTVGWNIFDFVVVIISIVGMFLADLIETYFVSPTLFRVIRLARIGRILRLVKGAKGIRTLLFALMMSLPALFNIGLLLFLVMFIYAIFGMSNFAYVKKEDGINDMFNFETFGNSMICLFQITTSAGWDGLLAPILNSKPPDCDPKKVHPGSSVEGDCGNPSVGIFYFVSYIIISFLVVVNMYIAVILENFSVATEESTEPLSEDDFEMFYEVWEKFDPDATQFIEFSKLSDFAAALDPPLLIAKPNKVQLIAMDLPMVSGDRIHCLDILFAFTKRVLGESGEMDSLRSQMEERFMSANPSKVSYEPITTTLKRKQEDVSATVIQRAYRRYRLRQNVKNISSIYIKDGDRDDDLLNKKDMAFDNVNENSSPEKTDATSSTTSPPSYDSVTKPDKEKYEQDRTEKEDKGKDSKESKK

CCOc1ccc(-c2cncc(C(=O)N/N=C(\C)c3cc(OC)cc(OC)c3)n2)cc1 [Compound 166, (E)-N′-(1-(3,5-dimethoxyphenyl)ethylidene)-6-(4-ethoxyphenyl)pyrazine-2-carbohydrazide]
IC50 [1]: 6.36 µM
IC50 [2]: 9.18 µM
